Here are results for 1 compound from patent US7067633B2, “Targeting cellular entry, cell survival, and pathogenicity by dynein light chain 1/PIN in human cells” (Board of Regents, The University of Texas System, priority 2003, dated 2006).

Holding throughout (format): cell-based, human
Assay [1] concerns ER transactivation (ERE-luc). The assay is described as follows: ERE-luc transactivation assay.
Protocol: MCF-7/DA-Pak1 cells were transfected with ERE-luc, treated with or without Dox for 24 h and then with or without E2 (10^−9M) and/or Tam (10^−8M) for 24 h, and ERE-luc activity was measured. […] FIG. 20D: MCF-7/TAM-Sen and MCF-7/TAMR1 cells were transfected with ERE-luc and treated with E2 or Tam for 24 h and ERE-luc activity was measured. […] FIG. 20L: Ishikawa cells were cotransfected with Pak1 siRNA control or Pak1 siRNA wt and treated with or without Tam (10^−8M) for 24 h and ERE-luc activity was measured.
Ishikawa and MCF-7/TAMR1 cells were transfected with control or Pak1 siRNA for 48 h and then with ERE-luc for 24 h and treated with E2 (10^−9M) for 24 h and ERE-luc activity was measured. […] Ishikawa cells were treated with control or and Pak1 and DLC siRNA for 48 h and then transfected with ERE-luc and treated with Tam (10^−8M) for 24 h and ERE-luc activity was measured.
Assay [2] concerns Pak1. The assay is described as follows: Pak1 protein expression by immunoblot. The source says: FIGS. 20A–20L—Pak1 activation confers tamoxifen-resistance. FIG. 20A: Pak1 activation promoted ER-transactivation function.
(In western blotting, separated proteins are transferred to a membrane and probed.)

Assay [3] concerns DLC1. The assay is described as follows: DLC1 protein and mRNA expression. The settings on record: MCF-7/TAMR1 and Ishikawa cells, 24 h.
Protocol: MCF-7/Tam-sen, MCF-7/TAMR1 and Ishikawa cells were treated with E2 (10^−9M) or Tam (10^−9M) for 24 h, and cell lysates were assayed for DLC1 and Pak1 protein expression. […] FIG. 21C: Effect of different periods of E2 treatment and cycloheximide (CHX) and Actinomycin D (ACTD) treatment on the ability of E2 to upregulate DLC1 mRNA in MCF-7 cells.

Take `CC/C(=C(\c1ccccc1)c1ccc(OCCN(C)C)cc1)c1ccccc1` [tamoxifen]: the “inhibitory effects on ERE-luc activity” value in assay [1] (Ishikawa cells, both DLC1 and Pak1 knocked down) was “restored the inhibitory effects”. Besides, the “Pak1-mediated ERE-stimulation” value in assay [1] (MCF-7/DA-Pak1 cells) was “not inhibited”. Besides, in assay [2] (Ishikawa cells, long-term treatment), the Pak1 protein expression entry was “increase”. Besides, the “levels of Pak1 protein” value in assay [2] (MCF-7 cells) is “no effect”. Besides, the “expression of the DLC1 protein” value in assay [3] is “robustly upregulated”.
